Data taken from patent US10940139B2, “Compounds that interact with the Ras superfamily for the treatment of cancers, inflammatory diseases, rasopathies, and fibrotic disease” (Shy Therapeutics LLC, priority 2017, dated 2021).
Like-named read-outs stand apart in the source and are kept apart here.

Legend:
Assay in all cases: Ras GTP binding domain inhibition assay (labeled GTP)
KRas wild type = KRas wild type (Homo sapiens (Human), UniProt P01116); settings: 20 μM compound
How it was run: (§1)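 Labelled-GTP binding: plate-captured His-KRas protein was pre-exposed to compound for 3 h at room temperature (single 20 μM point or dilution series, 1% DMSO, Tris pH 7.5/MgCl2/DTT buffer). Cy3- or Cy5-GTP was then added for 45 min. Washed wells were read for retained fluorescence to give inhibition or IC50.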

[1] = target: KRas G12D/Q61H double mutant (Homo sapiens (Human), UniProt P01116, G12D/Q61H); settings: for inhibition at 20 µM: 20 μM compound
KRas G12D/Q61H double mutant, sequence (P01116-2 other isoform, or with tags, fused parts or gaps G12D/Q61H): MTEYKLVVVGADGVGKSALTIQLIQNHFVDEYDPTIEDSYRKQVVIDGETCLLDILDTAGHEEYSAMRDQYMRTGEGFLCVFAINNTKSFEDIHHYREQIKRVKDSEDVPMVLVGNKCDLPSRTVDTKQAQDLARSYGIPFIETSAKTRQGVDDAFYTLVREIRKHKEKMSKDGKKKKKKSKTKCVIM
How it was run: as §1

KRas Q61H mutant = KRas Q61H mutant (Homo sapiens (Human), UniProt P01116, Q61H); settings: 20 μM compound
KRas Q61H mutant, sequence (P01116-2 other isoform, or with tags, fused parts or gaps Q61H): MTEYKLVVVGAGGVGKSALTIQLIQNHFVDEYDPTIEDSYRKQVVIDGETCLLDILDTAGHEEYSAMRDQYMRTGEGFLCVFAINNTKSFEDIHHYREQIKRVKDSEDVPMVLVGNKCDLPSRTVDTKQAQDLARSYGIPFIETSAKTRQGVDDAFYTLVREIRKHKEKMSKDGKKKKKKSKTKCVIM
How it was run: as §1

[2] = target: KRas G12C/Q61H double mutant (Homo sapiens (Human), UniProt P01116, G12C/Q61H); settings: 20 μM compound
KRas G12C/Q61H double mutant, sequence (P01116-2 other isoform, or with tags, fused parts or gaps G12C/Q61H): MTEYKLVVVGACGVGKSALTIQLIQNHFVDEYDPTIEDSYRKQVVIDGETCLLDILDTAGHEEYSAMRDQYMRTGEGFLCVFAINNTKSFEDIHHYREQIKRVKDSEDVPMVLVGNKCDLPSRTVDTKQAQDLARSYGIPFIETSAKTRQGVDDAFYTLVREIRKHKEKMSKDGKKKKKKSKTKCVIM
How it was run: as §1

KRas G12C mutant = KRas G12C mutant (Homo sapiens (Human), UniProt P01116, G12C); settings: 20 μM compound
KRas G12C mutant, sequence (P01116-2 other isoform, or with tags, fused parts or gaps G12C): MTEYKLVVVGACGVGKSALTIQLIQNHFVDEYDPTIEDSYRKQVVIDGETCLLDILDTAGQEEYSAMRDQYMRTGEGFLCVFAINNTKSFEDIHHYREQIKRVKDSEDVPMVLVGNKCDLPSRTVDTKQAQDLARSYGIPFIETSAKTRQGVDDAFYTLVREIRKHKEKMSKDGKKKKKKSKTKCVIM
How it was run: as §1

KRas G12D mutant protein = KRas G12D mutant protein (Homo sapiens (Human), UniProt P01116, G12D); settings: 20 μM compound
KRas G12D mutant protein, sequence (P01116-2 other isoform, or with tags, fused parts or gaps G12D): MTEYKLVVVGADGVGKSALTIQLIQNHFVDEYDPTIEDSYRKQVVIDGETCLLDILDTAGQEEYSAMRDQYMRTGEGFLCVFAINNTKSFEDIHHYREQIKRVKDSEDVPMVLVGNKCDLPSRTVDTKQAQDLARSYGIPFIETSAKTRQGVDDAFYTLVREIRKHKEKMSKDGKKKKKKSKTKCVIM

[3] = read-out: % Inhibition at 20 μM KRas wild type
[4] = read-out: % Inhibition at 20 μM KRas G12D Q61H
[5] = read-out: % Inhibition at 20 μM KRas Q61H
[6] = read-out: % Inhibition at 20 μM KRas G12C Q61H
[7] = read-out: % Inhibition at 20 μM KRas G12C
[8] = read-out: % Inhibition at 20 μM KRas G12D
[9] = KRas wild type, read-out: % Inhibition at 20 μM of K-Ras mutant and wild-type protein, KRas wild type
[10] = KRas G12D/Q61H double mutant, read-out: % Inhibition at 20 μM of K-Ras mutant and wild-type protein, KRas G12D Q61H
[11] = KRas Q61H, read-out: % Inhibition at 20 μM of K-Ras mutant and wild-type protein, KRas Q61H
[12] = KRas G12C/Q61H double mutant, read-out: % Inhibition at 20 μM of K-Ras mutant and wild-type protein, KRas G12C Q61H
[13] = KRas G12C, read-out: % Inhibition at 20 μM of K-Ras mutant and wild-type protein, KRas G12C
[14] = KRas G12D, read-out: % Inhibition at 20 μM of K-Ras mutant and wild-type protein, KRas G12D

KRas wild type, sequence (P01116-2 other isoform, or with tags, fused parts or gaps): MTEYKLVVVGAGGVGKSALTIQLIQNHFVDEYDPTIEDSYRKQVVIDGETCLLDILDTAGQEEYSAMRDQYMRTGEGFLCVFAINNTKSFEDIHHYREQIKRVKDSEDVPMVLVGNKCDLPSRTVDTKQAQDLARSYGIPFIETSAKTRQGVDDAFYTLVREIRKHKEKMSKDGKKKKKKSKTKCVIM

Structure (SMILES) | inhibition at 20 µM (KRas wild type; [3]) | inhibition at 20 µM [1, 4] | inhibition at 20 µM (KRas Q61H mutant; [5]) | inhibition at 20 µM [2, 6] | inhibition at 20 µM (KRas G12C mutant; [7]) | inhibition at 20 µM (KRas G12D mutant protein; [8]) | inhibition at 20 µM (KRas wild type; [9]) | inhibition at 20 µM [1, 10] | inhibition at 20 µM (KRas Q61H mutant; [11]) | inhibition at 20 µM [2, 12] | inhibition at 20 µM (KRas G12C mutant; [13]) | inhibition at 20 µM (KRas G12D mutant protein; [14]) | IC50 ([1]; serial dilution, read-out: KRas G12D Q61H (classes E-H, IC50))
O=C(CCc1cncnc1)Nc1nc(-c2ccccn2)nc2sccc12 [drawing 2891] | 51 to 75% | 51 to 75% | 51 to 75% | 76 to 100% | 25 to 50% | 51 to 75% |  |  |  |  |  |  | 
COc1cnc(-c2nccn2C)nc1O [drawing 3513] |  |  |  |  |  |  | 51 to 75% | 76 to 100% | 76 to 100% | 76 to 100% | 51 to 75% | 76 to 100% | 
COc1cc(-c2csc3c(O)nc(-c4ccccn4)nc23)cnc1C(F)(F)F [drawing 2884] | 51 to 75% | 51 to 75% | 51 to 75% | 51 to 75% | 51 to 75% | 51 to 75% |  |  |  |  |  |  | 
Cc1sc2c(O)nc(-c3ccccn3)nc2c1-c1cccnc1 [drawing 3468] |  |  |  |  |  |  | 25 to 50% | 25 to 50% | 51 to 75% | 51 to 75% | 25 to 50% | 51 to 75% | 
Cc1c(C(=O)O)sc2c(O)nc(-c3ccccn3)nc12 [drawing 3475] |  |  |  |  |  |  | 1 to 25% | 51 to 75% | 51 to 75% | 51 to 75% | 1 to 25% | 25 to 50% | 
CC(C)c1csc2c(O)nc(-c3ccccn3)nc12 [drawing 3487] |  |  |  |  |  |  | 51 to 75% | 51 to 75% | 51 to 75% | 51 to 75% | 51 to 75% | 51 to 75% | 
COc1cccc(C2CN(C(=O)c3csc4c(O)nc(-c5ccccn5)nc34)CCN2)c1 (stereo not shown) [drawing 2773] | 25 to 50% | 25 to 50% | 76 to 100% | 51 to 75% | 25 to 50% | 51 to 75% |  |  |  |  |  |  | 11 to 30 µM
O=C(c1csc2c(O)nc(-c3ccccn3)nc12)N1CC2CC1CN2c1ccccc1 (stereo not shown) [drawing 2838] | 25 to 50% | 76 to 100% | 76 to 100% | 76 to 100% | 25 to 50% | 51 to 75% |  |  |  |  |  |  | 
Oc1nc(-c2ccccn2)nc2cc(-c3ccncc3)sc12 [drawing 3561] |  |  |  |  |  |  | 51 to 75% | 51 to 75% | 25 to 50% | 25 to 50% | 25 to 50% | 51 to 75% | 
Oc1nc(-c2ccccn2)nc2sc3c(c12)CCCNC3 [drawing 2852] | 25 to 50% | 25 to 50% | 25 to 50% | 25 to 50% | 51 to 75% | 51 to 75% |  |  |  |  |  |  | 
CN(C)CCOc1cccc(-c2csc3c(O)nc(-c4ccccn4)nc23)c1 [drawing 3492] |  |  |  |  |  |  | 51 to 75% | 76 to 100% | 76 to 100% | 76 to 100% | 51 to 75% | 76 to 100% | 
COc1nc(-c2ccccn2)nc2c(C3CCC3)csc12 [drawing 3480] |  |  |  |  |  |  | 1 to 25% | 51 to 75% | 76 to 100% | 51 to 75% | 25 to 50% | 1 to 25% | 
Cc1cnc(-c2ccccn2)nc1NC(=O)C1CCCc2cc(C#N)ccc21 (stereo not shown) [drawing 2827] | 51 to 75% | 51 to 75% | 51 to 75% | 51 to 75% | 25 to 50% | 25 to 50% |  |  |  |  |  |  | 
OCC1(c2ccc(-c3csc4c(O)nc(-c5ccccn5)nc34)cc2)CC1 [drawing 2886] | 76 to 100% | 51 to 75% | 51 to 75% | 51 to 75% | 25 to 50% | 76 to 100% |  |  |  |  |  |  | 
CC(C)Oc1cnc(-c2ccccn2)nc1O [drawing 3481] |  |  |  |  |  |  | 25 to 50% | 51 to 75% | 51 to 75% | 76 to 100% | 51 to 75% | 51 to 75% | 
COc1ccc(CCC(=O)Nc2nc(-c3ccccn3)nc3sccc23)cn1 [drawing 3493] |  |  |  |  |  |  | 25 to 50% | 51 to 75% | 76 to 100% | 51 to 75% | 25 to 50% | 51 to 75% | 
O=C(CCn1ccnc1)Nc1nc(-c2ccccn2)nc2sccc12 [drawing 2889] | 51 to 75% | 51 to 75% | 76 to 100% | 51 to 75% | 25 to 50% | 76 to 100% |  |  |  |  |  |  | 
Cc1nn(C(C)C)cc1-c1csc2c(O)nc(-c3ccccn3)nc12 [drawing 3506] |  |  |  |  |  |  | 25 to 50% | 51 to 75% | 51 to 75% | 51 to 75% | 25 to 50% | 51 to 75% | 
Oc1nc(-c2ccccn2)nc2c(-c3ccsc3)csc12 [drawing 2875] | 1 to 25% | 25 to 50% | 25 to 50% | 25 to 50% | 51 to 75% | 51 to 75% |  |  |  |  |  |  | 
Oc1nc(-c2ccccn2)nc2c(-c3ccccc3F)csc12 [drawing 2868] | 51 to 75% | 51 to 75% | 51 to 75% | 51 to 75% | 25 to 50% | 51 to 75% |  |  |  |  |  |  | 
OCC1(c2ccc(-c3nc(-c4ccccn4)nc(O)c3Oc3ccccc3)cc2)CC1 [drawing 3534] |  |  |  |  |  |  | 1 to 25% | 51 to 75% | 76 to 100% | 76 to 100% | 51 to 75% | 25 to 50% | 
Cc1sc2c(O)nc(-c3ccccn3)nc2c1C(=O)N1CCN(Cc2cccc(O)c2)CC1 [drawing 3510] |  |  |  |  |  |  | 1 to 25% | 51 to 75% | 51 to 75% | 51 to 75% | 1 to 25% | 25 to 50% | 
Cc1sc2c(O)nc(-c3ccccn3)nc2c1C(=O)N1CCN(c2ccccc2)CC1C (stereo not shown) [drawing 3509] |  |  |  |  |  |  | 25 to 50% | 51 to 75% | 51 to 75% | 51 to 75% | 51 to 75% | 51 to 75% | 
Oc1nc(-c2ccccn2)nc2sc3c(c12)CCNC3 [drawing 2851] | 51 to 75% | 51 to 75% | 51 to 75% | 51 to 75% | 25 to 50% | 76 to 100% |  |  |  |  |  |  | 
